Measured values reported in ChEMBL document CHEMBL1146991, “The synthesis of highly potent, selective, and water-soluble agonists at the human adenosine A3 receptor” (Bioorg Med Chem Lett, 2006).
Values after ≈ are worked out from the molar mass of the structure shown.

Legend:
[1] = biological target: Adenosine receptors; A1 & A3 (Homo sapiens) (UniProt P30542+P0DMS8); assay: Selectivity for human adenosine A3 receptor over human adenosine A1 receptor; format: protein assay
Adenosine receptor A3 [2] = biological target: T1, Adenosine receptor A3 (Homo sapiens, UniProt P0DMS8); assay: Binding affinity to human adenosine A3 receptor
T1 sequence (P0DMS8 whole entry): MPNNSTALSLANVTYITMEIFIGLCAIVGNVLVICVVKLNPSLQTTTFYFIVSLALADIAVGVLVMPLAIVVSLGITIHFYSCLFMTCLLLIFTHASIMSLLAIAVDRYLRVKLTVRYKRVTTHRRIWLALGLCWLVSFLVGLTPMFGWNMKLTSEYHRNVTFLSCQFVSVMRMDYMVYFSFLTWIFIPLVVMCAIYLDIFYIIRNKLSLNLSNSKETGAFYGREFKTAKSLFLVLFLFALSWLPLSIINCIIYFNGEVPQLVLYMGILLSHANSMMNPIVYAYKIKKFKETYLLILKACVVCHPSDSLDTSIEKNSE

[3] = biological target: Adenosine receptor A2a (Homo sapiens) (UniProt P29274); assay: Increase of cAMP production in HEK293 cell expressing human adenosine A2A receptor at 3 uM; format: functional, cell-based
Sequence of Adenosine receptor A2a (Homo sapiens) (P29274 whole entry): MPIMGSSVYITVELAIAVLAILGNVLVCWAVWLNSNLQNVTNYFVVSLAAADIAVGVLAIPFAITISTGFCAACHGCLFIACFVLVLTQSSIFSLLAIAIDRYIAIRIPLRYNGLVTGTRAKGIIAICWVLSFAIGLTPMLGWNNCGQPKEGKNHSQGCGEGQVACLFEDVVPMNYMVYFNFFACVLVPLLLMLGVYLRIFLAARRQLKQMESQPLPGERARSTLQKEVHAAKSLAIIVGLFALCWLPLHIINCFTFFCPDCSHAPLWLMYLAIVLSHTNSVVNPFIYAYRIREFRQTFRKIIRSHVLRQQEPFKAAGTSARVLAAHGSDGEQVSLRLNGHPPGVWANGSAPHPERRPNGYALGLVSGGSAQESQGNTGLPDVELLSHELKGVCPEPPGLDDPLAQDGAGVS

[4] = Solubility in citrate buffer at pH 4; format: physicochemical
[5] = biological target: T2, Adenosine receptor A2b (Homo sapiens) (UniProt P29275); assay: Increase of cAMP production in HEK293 cell expressing human adenosine A2B receptor at 3 uM; format: functional, cell-based
T2 sequence (whole entry): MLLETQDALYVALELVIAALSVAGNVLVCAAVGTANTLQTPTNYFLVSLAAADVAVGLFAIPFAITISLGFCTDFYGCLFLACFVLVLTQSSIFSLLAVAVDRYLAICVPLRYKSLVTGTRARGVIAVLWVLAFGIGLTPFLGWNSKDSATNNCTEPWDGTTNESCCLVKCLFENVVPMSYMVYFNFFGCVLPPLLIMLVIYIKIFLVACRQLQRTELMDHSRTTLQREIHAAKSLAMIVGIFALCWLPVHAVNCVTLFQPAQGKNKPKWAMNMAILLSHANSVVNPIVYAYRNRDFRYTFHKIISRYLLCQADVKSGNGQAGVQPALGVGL

Adenosine receptor A3 [6] = biological target: T1, Adenosine receptor A3; assay: Inhibition of isoproterenol-induced increase of cAMP in HEK293 cell expressing human adenosine A3 receptor; format: functional, cell-based

Sequence of Adenosine receptors; A1 & A3 (Homo sapiens) (P30542 whole entry, looked up, one chain of several): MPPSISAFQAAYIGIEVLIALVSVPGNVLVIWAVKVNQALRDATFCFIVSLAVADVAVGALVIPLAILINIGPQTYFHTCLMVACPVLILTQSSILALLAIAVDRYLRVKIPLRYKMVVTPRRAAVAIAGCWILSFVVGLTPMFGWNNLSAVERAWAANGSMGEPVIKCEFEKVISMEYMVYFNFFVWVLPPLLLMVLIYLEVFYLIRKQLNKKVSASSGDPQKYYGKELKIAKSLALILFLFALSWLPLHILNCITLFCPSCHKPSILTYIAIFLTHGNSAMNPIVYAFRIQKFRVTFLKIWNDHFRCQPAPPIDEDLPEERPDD

CNC(=O)[C@H]1O[C@@H](n2cnc3c(NC)ncnc32)[C@H](O)[C@@H]1N
Selectivity ratio [1]: 194

CNC(=O)[C@H]1O[C@@H](n2cnc3c(NC)ncnc32)C[C@@H]1O
Selectivity ratio [1]: 12.6 | Ki (Adenosine receptor A3 [2]): 87 nM

CNC(=O)[C@H]1O[C@@H](n2cnc3c(NCc4cc(Cl)cc(Cl)c4)ncnc32)[C@H](O)[C@@H]1N
Selectivity ratio [1]: 148 | Ki (Adenosine receptor A3 [2]): 25 nM

CCNC(=O)N[C@H]1[C@@H](O)[C@H](n2cnc3c(NC)ncnc32)O[C@@H]1C(=O)NC
Ki (Adenosine receptor A3 [2]): > 3000 nM

CNC(=O)[C@H]1O[C@@H](n2cnc3c(NC)ncnc32)[C@H](O)[C@@H]1O
Selectivity ratio [1]: 13

CNC(=O)[C@H]1O[C@@H](n2cnc3c(NCc4cc(Cl)ccc4OCC(=O)O)ncnc32)[C@H](O)[C@@H]1N
Selectivity ratio [1]: 222 | Ki (Adenosine receptor A3 [2]): 130 nM

CNC(=O)[C@H]1O[C@@H](n2cnc3c(NCc4cc(OC)ccc4OC)ncnc32)[C@H](O)[C@@H]1O
Selectivity ratio [1]: 45 | Ki (Adenosine receptor A3 [2]): 3.9 nM

CNC(=O)[C@H]1O[C@@H](n2cnc3c(NC)ncnc32)[C@H](O)[C@@H]1NS(C)(=O)=O
Ki (Adenosine receptor A3 [2]): > 3000 nM

CNC(=O)[C@H]1O[C@@H](n2cnc3c(NCc4cc(Cl)ccc4OCC(=O)N4CCOCC4)ncnc32)[C@H](O)[C@@H]1N
Selectivity ratio [1]: 700 | Ki (Adenosine receptor A3 [2]): 20 nM

CNC(=O)[C@H]1O[C@@H](n2cnc3c(NC)ncnc32)[C@H](O)[C@@H]1NC(C)=O
Ki (Adenosine receptor A3 [2]): > 3000 nM

CNC(=O)[C@H]1O[C@@H](n2cnc3c(NCc4cc(Cl)ccc4OCC(=O)N4CCC(N(C)C)CC4)ncnc32)[C@H](O)[C@@H]1N
Selectivity ratio [1]: 456 | Ki (Adenosine receptor A3 [2]): 9.1 nM

CNC(=O)[C@@H]1C[C@@H](O)[C@H](n2cnc3c(NC)ncnc32)O1
Selectivity ratio [1]: 6 | Ki (Adenosine receptor A3 [2]): 59 nM

CNC(=O)[C@H]1O[C@@H](n2cnc3c(NCc4cc(Cl)ccc4OCc4ccccc4)ncnc32)[C@H](O)[C@@H]1N
Selectivity ratio [1]: 691 | Ki (Adenosine receptor A3 [2]): 16 nM

CNC(=O)[C@H]1O[C@@H](n2cnc3c(NCc4cc(Cl)ccc4OCC(=O)N4CCCCC4)ncnc32)[C@H](O)[C@@H]1N
Selectivity ratio [1]: 720 | Ki (Adenosine receptor A3 [2]): 18 nM

CNC(=O)[C@H]1O[C@@H](n2cnc3c(NCc4cc(Cl)ccc4OCC(=O)N4CCNCC4)ncnc32)[C@H](O)[C@@H]1N
Activity [3]: 16% | Selectivity ratio [1]: 445 | solubility [4]: 50 mg/mL (≈ 89.3 mM) | Activity [5]: 1% | Ki (Adenosine receptor A3 [2]): 9.4 nM | EC50 (Adenosine receptor A3 [6]): 8.1 nM

CNC(=O)[C@H]1O[C@@H](n2cnc3c(NCc4cc(Cl)ccc4OCC(N)=O)ncnc32)[C@H](O)[C@@H]1N
Selectivity ratio [1]: 526 | Ki (Adenosine receptor A3 [2]): 6.8 nM

CNC(=O)[C@H]1O[C@@H](n2cnc3c(NCc4cc(OC)ccc4OC)ncnc32)[C@H](O)[C@@H]1N
Selectivity ratio [1]: 294 | Ki (Adenosine receptor A3 [2]): 160 nM

CNC(=O)[C@H]1O[C@@H](n2cnc3c(NCc4cc(Cl)cc(Cl)c4)ncnc32)[C@H](O)[C@@H]1O
Selectivity ratio [1]: 9.4 | Ki (Adenosine receptor A3 [2]): 2.5 nM

CNC(=O)[C@H]1O[C@@H](n2cnc3c(NCc4cc(Cl)ccc4OC)ncnc32)[C@H](O)[C@@H]1N
Selectivity ratio [1]: 317 | Ki (Adenosine receptor A3 [2]): 15 nM
